Assays:
[1] = tested on: chaperone-mediated autophagy (CMA) in NIH 3T3 fibroblasts; experiment: Photoswitchable KFERQ-Dendra CMA reporter assay in NIH 3T3 fibroblasts; assay type: cell-based
Protocol: The photoactivatable CMA reporter assay was constructed by inserting a sequence of 21 amino acid of Ribonuclease A bearing the CMA-targeting motif in the N-terminus multicloning site of the photoactivatable protein mCherryl or the photoswitchable protein Dendra 2.
NIH 3T3 fibroblasts were stably transduced with a photoconvertible CMA reporter, KFERQ-Dendra. were photoswitched by exposure to a […] (constant current) LED (Norlux, 405 nm) for 10 minutes and at the desired times fixed in 3% formaldehyde. Test cells were exposed to the indicated concentrations of the compounds for 12 hours (FIG. 3A) or 24 hours (FIG. 3B). Cells were imaged using high content microscopy (Operetta, Perkin Elmer) or by capturing images with an Axiovert 200 fluorescence microscope (Zeiss) with apotome and equipped with a 63/1.4 NA oil objective lens and red (ex. 570/30 nm, em. 615/30 nm), cyan (ex. 365/50 nm and em. 530/45 nm) and green (ex. 475/40 nm and em. 535/45 nm) filter sets (Chroma). Images were acquired with a high-resolution CCD camera after optical sectioning through the apotome. CMA activity measured as the average number of fluorescent puncta (CMA active lysosomes) per cell. Values are expressed relative to values in untreated cells that were assigned an arbitrary value of 1 and are mean of >2,500 cells counted per condition. The S.D. in all instances was <0.01% mean value. Table 2 provides a comparison of compounds CA39.1 and its comparative example CA39 and CA77.01 and its comparative example CA77.

[2] = in vitro; conditions: for CLint(mic) / Remaining (T = 60 min): 3 μM; for Remaining (T = 60 min): 1 h; for CLint scaled at 3 μM: CLint(liver)
Protocol: Microsome stability was determined in human, rat, and mouse, liver microsomes. Compound at 3 μM final concentration along with 0.5 mg/mL microsome protein and 1 mM NADPH was incubated for 0, 5, 15, 30 and 60 min. As a negative control, test compound was incubated with microsomes in the absence of NADPH. Samples were quenched with methanol and centrifuged for 25 min at 2500 rpm to precipitate proteins. Supernatants were analyzed (N=3) by LC-MS/MS. The In peak area ratio (compound peak area/internal standard peak area) was plotted against time and the gradient of the line determined the elimination rate constant [k=(−1)(slope)].
R^2 is the correlation coefficient of the linear regression for the determination of kinetic constant. T1/2 is the half life and CLint (mic) is the intrinsic clearance. CLint(liver)=CLint (mic)*mg microsomal protein/g liver weight*g liver weight/kg body weight. Liver weight/kg body weight is 20 g/kg for human.

[3] = Pharmacokinetics (plasma and brain levels) in ICR (CD-1) mice; assay type: in vivo; conditions: ICR (CD-1) mice
Protocol: ICR (CD-1) male mice were fasted at least three horns and water was available ad libitum before the study. Animals were housed in a controlled environment, target conditions: temperature 18 to 29° C., relative humidity 30 to 70%. Temperature and relative humidity was monitored daily. An electronic time controlled lighting system was used to provide a 12 h light/12 h dark cycle. 3 mice for each indicated time point. ICR (CD-1) mice were administered CA77 at 1 mg/kg i.v. and 30 mg/kg p.o. or CA77.1 at 1 mg/kg i.v. (FIG. 2A) and 10 mg/kg p.o. (FIG. 2B). Three (3) mice were included in each dosage and time group. Mice were sacrificed and plasma and brains were obtained at 0.083, 0.25, 0.50, 1.0, 2.0, 4.0, 8.0, and 24.0 hours after administration and drug concentration determined using LC-MS/MS. Brains were removed, homogenized with a tissue homogenizer in cold 5% w/v BSA in phosphate buffer saline (PBS). A 100 microliter aliquots of brain samples were dispensed in to glass culture tubes and mixed with ethyl acetate (800 μl), vortexed, and centrifuged. The organic layer was transferred to a fresh culture tube, dried under nitrogen, and reconstituted in mobile phase for quantitation. Pharmacokinetic parameters were determined by standard methods using Phoenix WinNonlin 6.3 software.
Tables 3A and 3B provide the concentrations of CA77 in ICR (CD-1) mouse plasma (3A) and mouse brain (3B) following i.v. administration of 1 mg/kg CA77. Table 3C provides the brain/plasma ratio of CA77 following i.v. administration of 1 mg/kg CA77. Shaded cells indicate data not included in statistics due to aberrant value. BLQ=Below Limit of Quantitation.
Tables 5A and 5B provide the concentrations of CA77.1 in ICR (CD-1) mouse plasma (5A) and mouse brain (5B) following i.v. administration of 1 mg/kg CA77.1. Table 5C provides the brain/plasma ratio of CA77.1 following i.v. administration of 1 mg/kg CA77.1. The plasma and brain pharmacokinetic parameters for CA77.1 are provided in Table 6. *—cells contain data not present in the statistics.

[4] = T1/2, human microsomes, 3 μM compound, 0.5 mg/mL protein, 1 mM NADPH

## Clc1ccc2c(c1)OCC(c1ccc(-c3ccccc3)cc1)=N2 [CA39, 3-([1,1′-biphenyl]-4-yl)-7-chloro-2H-benzo[b][1,4]oxazine, reference compound]
[1]; Time 5
  CMA activity (fluorescent puncta per cell, relative to untreated cells = 1): 2.457
[1]; Time 10
  CMA activity (fluorescent puncta per cell, relative to untreated cells = 1): 2.619
[1]; Time 20
  CMA activity (fluorescent puncta per cell, relative to untreated cells = 1): 3.587
[1]; Time 30
  CMA activity (fluorescent puncta per cell, relative to untreated cells = 1): 4.374
[2]; human, microsomes
  half-life at 3 μM: 37.9 min
  CLint(mic): 36.6 µL/min/mg
  Remaining (T = 60 min): 30.1%
  CLint scaled at 3 μM: 32.9 mL/min/kg

## Clc1ccc2nc(-c3ccc(-c4ccccc4)cc3)cnc2c1 [CA39.1, 2-([1,1′-biphenyl]-4-yl)-6-chloroquinoxaline]
[1]; Time 5
  CMA activity (fluorescent puncta per cell, relative to untreated cells = 1): 2.107
[1]; Time 10
  CMA activity (fluorescent puncta per cell, relative to untreated cells = 1): 2.233
[1]; Time 20
  CMA activity (fluorescent puncta per cell, relative to untreated cells = 1): 2.605
[1]; Time 30
  CMA activity (fluorescent puncta per cell, relative to untreated cells = 1): 2.925
[2]; human, microsomes
  half-life at 3 μM: > 145 min
  CLint(mic): < 9.6 µL/min/mg
  Remaining (T = 60 min): 96.0%
  CLint scaled at 3 μM: < 8.6 mL/min/kg

## O=S(=O)(Nc1ccc(-c2cnc3cc(Cl)ccc3n2)cc1)C(F)(F)F [CA77, reference compound]
[3]; i.v. 1 mg/kg
  AUCINF_obs: 35.8 ng·h/mL
  AUClast: 35.3 ng·h/mL
  CL_obs: 465 mL/min/kg
  Cmax: 36.2 ng/mL
  MRTINF_obs: 57.1 min
  T1/2: 38.1 min
  Tmax: 4.98 min
  VSS_obs: 26.548 L/kg
[3]; p.o. 30 mg/kg vs i.v. 1 mg/kg
  F %: 124%
[3]; p.o. 30 mg/kg
  AUCINF_obs: 1458 ng·h/mL
  AUClast: 1317 ng·h/mL
  CL_obs: 343 mL/min/kg
  Cmax: 278 ng/mL
  MRTINF_obs: 238 min
  T1/2: 131 min
  Tmax: 120 min

## O=C(O)Cc1ccccc1Nc1c(Cl)cccc1Cl [Diclofenac]
[2]; [4]
  half-life at 3 μM: 15.7 min
[2]; human, microsomes
  half-life at 3 μM: 105 min
  CLint scaled at 3 μM: 94.4 mL/min/kg

## C[C@]12CC[C@H]3[C@@H](CCC4=CC(=O)CC[C@@]43C)[C@@H]1CC[C@@H]2O [Testosterone]
[2]; [4]
  half-life at 3 μM: 57.5 min

From patent publication US11834424B2, “Compounds useful as chaperone-mediated autophagy modulators” (ALBERT EINSTEIN COLLEGE OF MEDICINE, priority 2018, dated 2023)
